Where a name gives a salt, the structure may show the parent alone.

Data set [1] relates to dopamine release in the striatum/nucleus accumbens. To be noted: striatal microdialysis, literature reports; cited from earlier work.
Data set [2] relates to dopamine release in the cortex. The note with it: literature reports; cited from earlier work.
Data set [3] deals with dopamine release in the nucleus accumbens. In words: in vivo microdialysis in freely moving rats, dopamine efflux in nucleus accumbens. The note with it: for dopamine release in the nucleus accumbens: basal conditions, IP administration, monitored 210 minutes. As to the method: To determine whether irdabisant (or pharmaceutically acceptable salt thereof, such as irdabisant hydrochloride) leads to dopamine release in the nucleus accumbens under basal conditions similar to those in which pitolisant, ABT-239 and JNJ-39220675 were tested and found to have no effect, in vivo microdialysis was performed in freely moving rats. Dopamine levels were monitored for 210 minutes following compound administration. Irdabisant hydrochloride was administered intraperitoneally (IP) at 0.001, 0.01, 0.3 and 10 mg/kg for 30 minutes following an IP vehicle (0.5% methylcellulose and 0.2% Tween 80) injection.
Male Sprague-Dawley albino rats weighing 250 to 350 g were housed two per cage and maintained in a controlled 12:12-h light/dark cycle and under constant temperature at 22° C., with free access to food and water. Rats were anesthetized with the modified Equithesin mixture (see, e.g., Li et al., Neuropsychopharm., 30, 1986-1995, 2005) and mounted in a stereotaxic frame. Stainless guide cannula with a dummy probe were placed and fixed by cranioplastic cement onto the cortex dorsal both to the medial prefrontal cortex (mPFC) and the nucleus accumbens (NAC). Rats received dual probe implantation for the mPFC and NAC (coordinates: A+3.2, L+0.8 (10° C. inclination), V-5.5 mm and A+2.0, L+1.5 to +1.7, V-7.5 mm, respectively, relative to bregma). Three to five days after cannulation, a dialysis probe was implanted into the mPFC and NAC under slight anesthesia with isoflurane. Rats were then housed individually overnight in a dialysis cage and the probes perfused with Dulbecco's phosphate-buffered saline solution with calcium (Sigma, St. Louis, MO) (138 mM NaCl, 8.1 mM Na2HPO4, 2.7 mM KCl, 1.5 mM KH2PO4, 0.5 mM MgCl2, 1.2 mM CaCl2), pH 7.4) at a rate of 0.4 μL/min. On the day of the experiment, the flow was increased to 1.5 μL/min. Sample collection began one hour later, and samples were collected every 30 min. After 60 min of stable baseline, each rat was dosed twice (indicated by arrows in FIG. 1-4); a vehicle dose at t=0 min., followed 30 minutes later by a dose of irdabisant hydrochloride. Dopamine (DA) and acetylcholine (Ach) samples, measured in the absence of cholinesterase inhibition, were monitored with HPLC coupled to mass spectrometry.
Data are presented as percentages of baseline from baseline to 180 minutes after treatment. Mean baseline levels (i.e., an average of 60, 30, and 0 minutes before injection) of DA and ACh in the mPFC and NAC were designated as 100%. Non-transformed data were analyzed at each dose by assessing the change relative to the mean baseline using a one-way repeated measures ANOVA followed by a Bonferroni's post-hoc test as implemented in the SigmaPlot version 11.0.0.77 statistical package (Systat Software, Inc., San Jose CA).

The conditions of data set [4]: cited from earlier work.
For data set [5] the following is noted: oral, after dosing; cited from earlier work.

Take `C[C@@H]1CCCN1CCc1cc2cc(-c3ccc(C#N)cc3)ccc2o1` [ABT-239, (R)-4-(2-(2-(2-methyl-|-pyrrolidinyl)ethyl)-1-benzofuran-5-yl)benzonitrile]: the “dopamine release in the nucleus accumbens” value in data set [1] was “lack of effect on dopamine release”.
For the compound `C(#Cc1ccc(CN2CCOCC2)cc1)CCN1CCCCC1.Cl.Cl` [JNJ-10181457], in data set [2], the “dopamine release in the cortex” value is given as “do not”.
For the compound `O=C(c1ccc(Oc2ccc(F)cc2)nc1)N1CCCN(C2CCC2)CC1` [JNJ-39220675, (4-cyclobutyl-1,4-diazepan-1-yl) (6-(4-fluorophenoxy)pyridin3-yl) methanone], the “dopamine release in the nucleus accumbens” value in data set [1] is “lack of effect on dopamine release”.
With `C[C@@H]1CCCN1CCCOc1ccc(-c2ccc(=O)[nH]n2)cc1` [irdabisant hydrochloride], the “elevation in dopamine levels relative to baseline” value in data set [3] (0.01 mg/kg dose, 180 minutes post-dose, p=0.005, overall p<0.001) is listed as “statistically significant elevation in dopamine levels”; in data set [3] (0.3 mg/kg dose, 90 minute time point, p=0.02, overall p=0.003) it was “significance”; in data set [3] (10 mg/kg dose, 60, 90, 120 and 150 minute time points, overall p<0.001) it was “significance was achieved”. For the same compound, the “maximal effect on nucleus accumbens dopamine efflux” value in data set [3] (10 mg/kg IP dose) is 205.6±6.86 % over basal. The “threshold dose for nucleus accumbens dopamine efflux” value in data set [3] (IP) is on record as 0.01 mg/kg. The “dopamine release in the nucleus accumbens” value in data set [3] was “increased dopamine release was observed”.
Take `C[C@@H]1CCCN1CCCOc1ccc(-c2ccc(=O)[nH]n2)cc1` [irdabisant, 6-{4-[3-((R)-2-methyl-pyrrolidin-1-yl)-propoxy]-phenyl}-2H-pyridazin-3-one]: the “change over placebo on BL-VAS subscales” value in data set [4] (Baakman et al. 2019) is “increasing scores on BL-VAS alertness and contentedness/mood subscales”. The “subjective experiences and cognitive effects” value in data set [4] (healthy participants, after a single dose) was “promote positive subjective experiences and cognitive effects”. In addition, the Tmax result in data set [5] is recorded as “approximately 5 hours”. Further, the “dopamine release in the nucleus accumbens” value in data set [3] was “increases dopamine release”.
As to `Clc1ccc(CCCOCCCN2CCCCC2)cc1` [pitolisant], the “dopamine release in the nucleus accumbens” value in data set [1] is “no increase in release of dopamine release”.

The values above are taken from patent US20250144092A1, “TREATMENT OF PSYCHIATRIC OR NEUROLOGICAL DISORDERS IN PATIENTS WITH PROMINENT ANHEDONIA USING IRDABISANT AS A MONOTHERAPY OR IN COMBINATION WITH AN ANTIPSYCHOTIC AGENT” (Alto Neuroscience, Inc., priority 2023, published 2025).
